According to patent publication US20130273557A1 (priority 2010, published 2013):
pEC50: −log10 of the molar value. “Also recorded” adds a separate entry of the source.

What was measured:
C2C12 myoblasts = test: OCR and ECAR in C2C12 myoblasts (Seahorse); assay type: cell-based, mouse
Description: The C2C12 mouse myoblast cell line (ATCC, Manasses, Va.) was cultured in Dulbecco's Modified Eagle Medium (DMEM; Gibco®; Carlsbad, Calif.) supplemented with 10% fetal bovine serum (FBS), 2 mM GlutaMax® and penicillin/streptomycin. Cells were maintained in 10% CO2 humidified at 37° C.
(§1) OCR and ECAR were measured with a Seahorse® XF24 Flux Analyzer (Seahorse Bioscience, Billerica, Mass.). For PSI experiments on C2C12 cells, basal values were assessed in non-buffered DMEM Assay Medium without glucose, glutamine or pyruvate, and supplemented with 25 mM glucose, 6 mM Glutamax®, and 1 mM sodium pyruvate. […] Succinate and ADP stocks were diluted to 10× concentrations in pre-warmed XF MAS buffer, pH 7.2. Using a Plate Prep Station (Seahorse Bioscience, Billerica, Mass.), cells were washed with 1 mL buffer and were brought to 607 μL with buffer. […] Raw basal OCR and ECAR values were normalized as a percent of the mean control value for each individual experiment. Normalized data from experiments were expressed as mean±SEM.

[1] = test system: single cultured hippocampal neurons; settings: acute application of 10 μM, after 1-5 min
Description: Oxygen uptake was measured in single hippocampal neurons in culture (DIV 14-17). A […] (tip diameter) oxygen-sensing electrode oscillated 10 μm close-to and away-from the cell every 3 sec. The difference in current detected at the two positions was translated into oxygen flux.

[2] = target: ATP synthesis in liver mitochondria (Rattus norvegicus, UniProt P19511+Q06647)
Description: Synthesis of ATP in liver mitochondria was measured using an ATP determination kit (A-22066; Molecular Probes, Eugene, Oreg.), supplemented with 1 mM sodium succinate and 500 nM rotenone. Assays were performed in 96-well microplates (Becton Dickinson, Franklin Lakes, N.J.) in a final volume of […] consisting of 10 μL mitochondria (0.1 mg protein/ml final concentration), 10 μL of drug or control buffer and 90 μL ATP-determination reaction mixture. After a 5 min. recording of basal luciferase-generated luminescence, ADP (final concentration, 10 μM, 10 μL) was injected into each well. Luminescence was recorded every 6 sec for 15-20 min.

[3] = test system: models of cell death and NDDs; settings: compared with pramipexole; cited from earlier work
subjects with ALS = settings: double-blind, placebo- and low-dose-controlled 2-part Phase 2; cited from earlier work
[4] = test system: human neuroblastoma SH-SY5Y cells; settings: MPP^+ or PSI exposure; cited from earlier work
[5] = test system: SH-SY5Y neuroblastoma cells; settings: 1-100 μM; 24 hr
Description: (§2) Undifferentiated SH-SY5Y human neuroblastoma cells (ATCC, Manasses, Va.) were maintained in humidified 5% CO2 in 1:1 Ham's F12 nutrient mixture with Glutamax® and Minimal Essential Medium with L-glutamine (MEM-Alpha), 10% FBS, and 1% penicillin/streptomycin (Gibco® Invitrogen Corp., Carlsbad, Calif.).
(§3) Cellular viability was measured using CellTiter-Blue® (Promega Corp., Madison, Wis.) in black-walled optical imaging multiwell plates, and cellular ATP was measured using the CellTiter-Glo® (Promega Corp., Madison, Wis.) luminescence assay in opaque-walled multiwell plates according to the manufacturer's protocol.

complex V (F1FO ATPase) = complex V (F1FO ATPase) (Rattus norvegicus, UniProt P19511+Q06647); test: ATP hydrolysis in SMVs, luciferin-luciferase assay; assay type: biochemical; design: from tissue; host or cells: rat brain mitochondria, lubrol-insoluble submitochondrial vesicles (SMVs)
Description: 3 wells were used for each condition, repeated at least 3× on different SMV isolations.

[6] = test system: digitonin-permeabilized cultured cortical neurons
Description: Primary rat cortical cultures were incubated with digitonin (10 μg/ml) and rotenone (100 nM) for 45 minutes in MAS1 buffer prior to measurement of oxygen consumption rate (OCR) by a Seahorse® flux analyzer. […] Data are shown as a percentage of the control group OCR±SEM.
Primary cultures of cortical neurons were prepared as described previously, plated at 8×10^5 cells/well for Seahorse XF24 experiments and grown in Neurobasal A supplemented with B27, 1 mM glutamine and penicillin/streptomycin for […] in vitro (DIV). On DIV 7, media without antibiotics was substituted. The cultures were used on DIV 9-10.
as §1

SMVs (F1FO ATP synthase) = SMVs (F1FO ATP synthase) (Rattus norvegicus, UniProt P19511+Q06647); settings: 20 μM unlabeled dexpramipexole; non-urea treated SMVs; preliminary experiment
[7] = test system: cultured hippocampal neurons; settings: 10 μM, 12 hr pre-treatment
Description: as §3, with “Cultured hippocampal neurons were prepared and plated on 96 well plates. […] Cellular” for “Cellular”

[8] = test system: SH-SY5Y neuroblastoma cells; settings: 30 μM
Description: as §2, §1

[9] = co-incubation of dexpramipexole 30 μM and PSI 30 nM
[10] = 30 μM applied 1 hr prior to recording

CCCN[C@@H]1CCc2nc(N)sc2C1 [dexpramipexole, (6R)-4,5,6,7-tetrahydro-N-6-propyl-2,6-benzothiazole-diamine]
ECAR (C2C12 myoblasts; [9]): no increase in ECAR
OCR (C2C12 myoblasts; [9]): significant decrease in OCR
OCR (C2C12 myoblasts; dexpramipexole 30 μM or PSI 30 nM alone, 18 hr): significant decrease in OCR; also recorded: significantly decreased
decrease in average oxygen flux [1]: ~16%
Hill slope of CRC [2]: < 1
protection [3]: equally protective
trends in efficacy (subjects with ALS): reduction of functional decline and decreased mortality
in vitro cytoprotection [4]: significant concentration-dependent in vitro cytoprotection
maximal group increases in ATP levels relative to control [5]: ~18%
pEC50 (complex V (F1FO ATPase)): 5.79
OCR during succinate incubation [6, 10]: lower OCR
OCR following an ADP pulse [6, 10]: significantly lower OCR
increase in OCR produced by succinate and following the ADP pulse ([6]; acute application 30 μM): less than in control cells
basal respiration ([6]; acute application 30 μM, rotenone): did not affect
reduction in ^14C-dexpramipexole binding by competition (SMVs (F1FO ATP synthase)): 34%
increase in ATP levels compared to vehicle-treated cultures [7]: 11%
basal oxygen consumption rate (OCR) [8]: modestly decreased
